According to US10239925B2, “Peptides and combination of peptides for use in immunotherapy against ovarian cancer and other cancers” (IMMATICS BIOTECHNOLOGIES GMBH, priority 2015, dated 2019):

Legend:
[1] = tested on: CD8+ T cells; assay: In vitro immunogenicity: priming of CD8+ T cells with aAPCs loaded with peptide/MHC and anti-CD28, multimer readout; assay type: cell-based, human; details: for Wells positive [%]: HLA-A*02 restricted peptides, percentage of positive wells (among evaluable)
Method: In an aspect, the peptides are pre-screened for immunogenicity before being included in the warehouse. By way of example, and not limitation, the immunogenicity of the peptides included in the warehouse is determined by a method comprising in vitro T-cell priming through repeated stimulations of CD8+ T cells from healthy donors with artificial antigen presenting cells loaded with peptide/MHC complexes and anti-CD28 antibody.
FIGS. 3A to 3F show exemplary immunogenicity data: flow cytometry results after peptide-specific multimer staining. CD8+ T cells were primed using artificial APCs coated with anti-CD28 mAb and HLA-A*02 in complex with SeqID No 662 (FIG. 3A, left panel), SeqID No 663 (FIG. 3B, left panel), SeqID No 11 peptide (FIG. 3C, left panel), SeqID No 198 peptide (FIG. 3D, left panel), SeqID No 587 peptide (FIG. 3E, left panel) and SeqID No 427 peptide (FIG. 3F, left panel), respectively. After three cycles of stimulation, the detection of peptide-reactive cells was performed by 2D multimer staining with A*02/SeqID No 662 (FIG. 3A), A*02/SeqID No 663 (FIG. 3B), A*02/SeqID No 11 (FIG. 3C), A*02/SeqID No 198 (FIG. 3D), A*02/SeqID No 587 (FIG. 3E) or A*02/SeqID No 427 (FIG. 3F). Right panels (FIGS. 3A, 3B, 3C, 3D, 3E, and 3F) show control staining of cells stimulated with irrelevant A*02/peptide complexes. Viable singlet cells were gated for CD8+ lymphocytes. Boolean gates helped excluding false-positive events detected with multimers specific for different peptides. Frequencies of specific multimer+ cells among CD8+ lymphocytes are indicated.
In Vitro Immunogenicity for MHC Class I Presented Peptides
In order to obtain information regarding the immunogenicity of the TUMAPs of the present invention, the inventors performed investigations using an in vitro T-cell priming assay based on repeated stimulations of CD8+ T cells with artificial antigen presenting cells (aAPCs) loaded with peptide/MHC complexes and anti-CD28 antibody.
In Vitro Priming of CD8+ T Cells
In order to perform in vitro stimulations by artificial antigen presenting cells loaded with peptide-MHC complex (pMHC) and anti-CD28 antibody, the inventors first isolated CD8+ T cells from fresh HLA-A*02 leukapheresis products via positive selection using CD8 microbeads (Miltenyi Biotec, Bergisch-Gladbach, Germany) of healthy donors obtained from the University clinics Mannheim, Germany, after informed consent.
PBMCs and isolated CD8+ lymphocytes were incubated in T-cell medium (TCM) until use consisting of RPMI-Glutamax (Invitrogen, Karlsruhe, Germany) supplemented with 10% heat inactivated human AB serum (PAN-Biotech, Aidenbach, Germany), 100 U/ml Penicillin/100 μg/ml Streptomycin (Cambrex, Cologne, Germany), 1 mM sodium pyruvate (CC Pro, Oberdorla, Germany), 20 μg/ml Gentamycin (Cambrex). 2.5 ng/ml IL-7 (PromoCell, Heidelberg, Germany) and 10 U/ml IL-2 (Novartis Pharma, Nümberg, Germany) were also added to the TCM at this step.
Generation of pMHC/anti-CD28 coated beads, T-cell stimulations and readout was performed in a highly defined in vitro system using four different pMHC molecules per stimulation condition and 8 different pMHC molecules per readout condition.
The purified co-stimulatory mouse IgG2a anti human CD28 Ab 9.3 (Jung et al., 1987) was chemically biotinylated using Sulfo-N-hydroxysuccinimidobiotin as recommended by the manufacturer (Perbio, Bonn, Germany). Beads used were 5.6 μm diameter streptavidin coated polystyrene particles (Bangs Laboratories, Illinois, USA).
pMHC used for positive and negative control stimulations were A*0201/MLA-001 (peptide […] (SEQ ID NO. 664) from modified Melan-A/MART-1) and A*0201/DDX5-001 ([…] from DDX5, SEQ ID NO. 665), respectively.
800.000 beads/200 μl were coated in 96-well plates in the presence of 4×12.5 ng different biotin-pMHC, washed and 600 ng biotin anti-CD28 were added subsequently in a volume of 200 μl. […]

[2] = biological target: HLA-A*02:01 (Homo sapiens, UniProt P04439, D140Y/D185E/D98H/E176V/E277Q/G131W/G231S/I119V/I121R/I166T/I218V/L300P/L318F/N151K/N90K/P208A/P217A/Q86G/Q94H/R138H/R169H/T345S); assay: MHC binding assay (UV-ligand exchange, anti-β2m ELISA, peptide exchange yield); details: binding to HLA-A*02:01
Procedure, shortened: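 Peptide-MHC complexes formed by UV-ligand exchange, cleaving a UV-sensitive placeholder peptide in favour of the test peptide. Exchange yield measured by ELISA: monomers diluted 100-fold onto streptavidin-coated plates, 1 h 37 °C, detected with 2 ug/ml HRP anti-β2m and TMB, absorbance at 450 nm.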

Row | Peptide exchange (MHC class I binding score, peptide exchange yield) [2] | Substance | Wells positive [%] [1] | donors ([1]; percentage of positive donors) | wells ([1]; percentage of positive wells)
1 | “++++” (>75% = ++++) | 395 (ALALGGIAVV; listed as Homo sapiens) [compound 395] | “+++” (50% - 69% = +++) |  | 
2 | “+++” (>50 = +++) | 446 (QLIPALAKV; listed as Homo sapiens) [compound 446] | “++” (20% - 49% = ++) |  | 
3 | “++” (>20% = ++) | 499 (KIFDIDEAEEGV; listed as Homo sapiens) [compound 499] | “+” (<20% = +) |  | 
4 | “++” (>20% = ++) | 603 (FLIEPEHVNTV; listed as Homo sapiens) [compound 603] | “+” (<20% = +) |  | 
5 | “+++” (>50 = +++) | 454 (KLPPPPPQA; listed as Homo sapiens) [compound 454] | “++” (20% - 49% = ++) |  | 

Second part, the substance before the results:

Row | Substance | Peptide exchange (MHC class I binding score, peptide exchange yield) [2] | Wells positive [%] [1] | donors ([1]; percentage of positive donors) | wells ([1]; percentage of positive wells)
6 | 166 (YLNHLEPPV; listed as Homo sapiens) [compound 166] | “+++” (>50 = +++) | “++++” (≥70% = ++++) |  | 
7 | 8 (FTLGNVVGMYL; listed as Homo sapiens) [compound 8] | “++++” (>75% = ++++) | “+” (<20% = +) |  | 
8 | 5 (HLTEVYPEL; listed as Homo sapiens) [compound 5] | “+++” (>50 = +++) | “+++” (50% - 69% = +++) |  | 
9 | 215 (QLINHLHAV; listed as Homo sapiens) [compound 215] | “+++” (>50 = +++) | “++” (20% - 49% = ++) |  | 
10 | 118 (KLIDNNINV; listed as Homo sapiens) [compound 118] | “+++” (>50 = +++) | “+” (<20% = +) |  | 
11 | 7 (SLVGLLLYL; listed as Homo sapiens) [compound 7] | “++++” (>75% = ++++) | “++” (20% - 49% = ++) |  | 
12 | 11 (KIFEMLEGV; listed as Homo sapiens) [compound 11] | “+++” (>50 = +++) | “+” (<20% = +) |  | 
13 | 150 (RLWEEGEELEL; listed as Homo sapiens) [compound 150] | “+++” (>50 = +++) | “+” (<20% = +) |  | 
14 | 283 (ALYIGDGYVIHLA; listed as Homo sapiens) [compound 283] | “+++” (>50 = +++) |  | +++ (50% - 69% = +++) | + (<20% = +)
15 | 199 (ALQDVPLSSV; listed as Homo sapiens) [compound 199] | “+++” (>50 = +++) | “+” (<20% = +) |  | 
16 | 247 (VLLPNDLLEKV; listed as Homo sapiens) [compound 247] | “+++” (>50 = +++) | “+” (<20% = +) |  | 
17 | 113 (GLLPTPLFGV; listed as Homo sapiens) [compound 113] | “+++” (>50 = +++) | “+” (<20% = +) |  | 
18 | 19 (FMVDNEAIYDI; listed as Homo sapiens) [compound 19] | “++++” (>75% = ++++) | “++” (20% - 49% = ++) |  | 
